Measured values as given in patent US20240285634A1, “COMPOUND AND METHOD FOR TREATING CHEMOTHERAPY-ASSOCIATED GASTROINTESTINAL SIDE EFFECTS” (ONQUALITY PHARMACEUTICALS CHINA LTD., priority 2021, published 2024).

Columns and labels:
[1] = test system: Chemotherapeutic agent-caused diarrhea models of Balb/c mice; assay: Relieving effect on diarrhea caused by a chemotherapeutic agent (Examples 1-201); format: in vivo
Text: Construction of mouse animal models: Chemotherapeutic agent-caused diarrhea models of Balb/c mice were constructed according to the administration mode and frequency of the chemotherapeutic agent as shown in Table 3. After administration for several days, mice developed different extents of diarrhea symptoms (as shown in FIG. 1), which were similar to the conditions in human. Thus, chemotherapeutic agent-caused diarrhea models of mice are very good models to mimic diarrhea in human caused by the chemotherapeutic agent.
Balb/c mice were fed for 1 week, and then divided into groups. The experiment was divided into a control group, a chemotherapeutic agent group, and a group of the compound as shown in Formula I, each of which comprised 10 mice, to perform the administration experiment, for which the administration dosage, mode, time and frequency were shown in Table 3. The control group: being injected or intragastrically administered with the same solvent as that used in the group of the compound as shown in Formula I (the injection mode and time were shown in Table 3), and then being injected or intragastrically administered with the same solvent as that used in the chemotherapeutic agent group (the administration mode was shown in Table 3); the chemotherapeutic agent group: being injected or intragastrically administered with the same solvent as that used in the group of the compound as shown in Formula I (the administration mode and time were shown in Table 3), and then being injected or intragastrically administered with the chemotherapeutic agent (the type, administration mode and dosage were shown in Table 3); the group of the compound as shown in Formula I: being injected or intragastrically administered with the compound as shown in Formula I (the administration mode and time were shown in Table 3), and then being administered with the chemotherapeutic agent (the administration mode and dosage were shown in Table 3).
The scoring of diarrhea can refer to the method of Akinobu Kurita (Cancer Chemother Pharmacol 2000; 46:211-20.), Grade 0: normal feces; Grade 1: mild diarrhea, the stools is slightly wet and soft; Grade 2: moderate diarrhea, loose stools and mild perianal contamination; Grade 3: severe diarrhea, watery stools and accompanied by severe perianal staining (see FIG. 1). It is regarded as effective remission when the diarrhea grading of mice in the group of the compound as shown in Formula I is reduced compared with the average diarrhea grading of mice in the chemotherapeutic agent group.
(§1) The diarrhea grading of mice was observed and recorded every day. At the end of the experiment, the number of mice in the group of the compound as shown in Formula I whose diarrhea grading was lower than that of mice in the chemotherapeutic agent group was recorded. Table 3 lists various animal experiment combinations of chemotherapeutic agents and the compound as shown in Formula I, as well as the corresponding experimental results. (Relative remission rate %=the number of mice in the group of the compound as shown in Formula I whose diarrhea has been effectively relieved/the total number of mice in the group of the compound as shown in Formula I*100%. The establishment rate of diarrhea model in the chemotherapeutic agent group was 50%-70%, that is, about 5-7 of 10 mice developed diarrhea during the experiment, and there were cases of individual mice death or not developing diarrhea.)

[2] = test system: Balb/c mice, diarrhea caused by continuous administration of a chemotherapeutic agent; assay: Relieving effect on diarrhea caused by the continuous administration of a chemotherapeutic agent (Examples 365-384); format: in vivo
Text: Balb/c mice were fed for 1 week, and then divided into groups. The experiment was divided into a control group, a chemotherapeutic agent group, and a group of the compound as shown in Formula I, each of which comprised 10 mice, to perform the administration experiment, for which the administration dosage, mode, time and frequency were shown in Table 5. The control group: being injected or intragastrically administered with the same solvent as that used in the group of the compound as shown in Formula I (the administration mode and time were shown in Table 5), and then being injected or intragastrically administered with the same solvent as that used in the chemotherapeutic agent group (the administration mode was shown in Table 5); the chemotherapeutic agent group: being injected or intragastrically administered with the same solvent as that used in the group of the compound as shown in Formula I (the administration mode and time were shown in Table 5), and then being injected or intragastrically administered with the chemotherapeutic agent (the type, administration mode, time and dosage were shown in Table 5); the group of the compound as shown in Formula I: being injected or intragastrically administered with the compound as shown in Formula I (the administration mode and time were shown in Table 5), and then being administered with the chemotherapeutic agent (the type, administration mode, time and dosage were shown in Table 5).
The scoring of diarrhea can refer to the method of Akinobu Kurita (Cancer Chemother Pharmacol 2000; 46:211-20.), Grade 0): normal feces; Grade 1: mild diarrhea, the stools is slightly wet and soft; Grade 2: moderate diarrhea, loose stools and mild perianal contamination; Grade 3: severe diarrhea, watery stools and accompanied by severe perianal staining (see FIG. 1). It is regarded as effective remission when the diarrhea grading of mice in the group of the compound as shown in Formula I is reduced compared with the average diarrhea grading of mice in the chemotherapeutic agent group.
as §1, with “5” for “3”, “50%-80%,” for “50%-70%,”, “5-8” for “5-7”

CN1CCN(c2ccc(Nc3ncc4cc5n(c4n3)C3(CCCCC3)CNC5=O)nc2)CC1 [Compound I, Trilaciclib]
Relative remission rate ([1]; Ex 166, Fluorouracil 50 + oxaliplatin 5 + irinotecan 50 + tetrahydrofolic acid 90 mg/kg intraperitoneal single, compound 150 mg/kg oral single 12 h before, cycle 7 days): 40% | Relative remission rate ([1]; Ex 167, Fluorouracil 50 + oxaliplatin 5 + irinotecan 50 + tetrahydrofolic acid 90 mg/kg intraperitoneal single, compound 150 mg/kg oral single 24 h before, cycle 7 days): 20% | Relative remission rate ([1]; Ex 168, Fluorouracil 50 + oxaliplatin 5 + irinotecan 50 + tetrahydrofolic acid 90 mg/kg intraperitoneal single, compound 150 mg/kg oral single 0.5 h before, cycle 7 days): 40% | Relative remission rate ([1]; Ex 169, Fluorouracil 50 + oxaliplatin 5 + irinotecan 50 + tetrahydrofolic acid 90 mg/kg intraperitoneal single, compound 150 mg/kg oral single 4 h before, cycle 7 days): 60% | Relative remission rate ([1]; Ex 170, Fluorouracil 50 + oxaliplatin 5 + irinotecan 50 + tetrahydrofolic acid 90 mg/kg intraperitoneal single, compound 150 mg/kg oral single 8 h before, cycle 7 days): 80% | Relative remission rate ([1]; Ex 171, Fluorouracil 50 + oxaliplatin 5 + irinotecan 50 + tetrahydrofolic acid 90 mg/kg intraperitoneal single, compound 150 mg/kg oral single 12 h before, cycle 7 days): 40% | Relative remission rate ([1]; Ex 172, Fluorouracil 50 + oxaliplatin 5 + irinotecan 50 + tetrahydrofolic acid 90 mg/kg intraperitoneal single, compound 150 mg/kg oral single 24 h before, cycle 7 days): 20% | Relative remission rate ([1]; Ex 190, Fluorouracil 100 + oxaliplatin 10 + irinotecan 200 + tetrahydrofolic acid 100 mg/kg oral single, compound 100 mg/kg subcutaneous single 1 h before, cycle 7 days): 60% | Relative remission rate ([1]; Ex 191, Fluorouracil 100 + oxaliplatin 10 + irinotecan 200 + tetrahydrofolic acid 100 mg/kg oral single, compound 100 mg/kg subcutaneous single 2 h before, cycle 7 days): 50% | Relative remission rate ([1]; Ex 192, Fluorouracil 100 + oxaliplatin 10 + irinotecan 200 + tetrahydrofolic acid 100 mg/kg oral single, compound 100 mg/kg subcutaneous single 4 h before, cycle 7 days): 30% | Relative remission rate ([1]; Ex 193, Fluorouracil 100 + oxaliplatin 10 + irinotecan 200 + tetrahydrofolic acid 100 mg/kg oral single, compound 100 mg/kg subcutaneous single 6 h before, cycle 7 days): 30% | Relative remission rate ([1]; Ex 196, Gemcitabine (GEM) 120 mg/kg intraperitoneal single, compound 100 mg/kg oral single 12 h before, cycle 8 days): 50% | diarrhea gradings compared with the chemotherapeutic agent group ([1]; administered before the chemotherapeutic agent, Table 3 and FIG. 2): relieved to different degrees | Relative remission rate (%) ([2]; Example 365, Fluorouracil (5-Fu) intraperitoneal injection 70 mg/kg once a day, for 3 days, compound intravenous injection 100 mg/kg once a day, for 3 days, 2 h before chemotherapeutic agent, cycle 10 days): 60% | Relative remission rate (%) ([2]; Example 366, Fluorouracil (5-Fu) intraperitoneal injection 70 mg/kg once a day, for 3 days, compound intravenous injection 100 mg/kg once a day, for 3 days, 4 h before chemotherapeutic agent, cycle 10 days): 40% | Relative remission rate (%) ([2]; Example 367, Fluorouracil (5-Fu) intraperitoneal injection 70 mg/kg once a day, for 3 days, compound intravenous injection 100 mg/kg once a day, for 3 days, 6 h before chemotherapeutic agent, cycle 10 days): 30% | Relative remission rate (%) ([2]; Example 368, Fluorouracil (5-Fu) intraperitoneal injection 70 mg/kg once a day, for 3 days, compound intravenous injection 100 mg/kg once a day, for 3 days, 8 h before chemotherapeutic agent, cycle 10 days): 20% | Relative remission rate (%) ([2]; Example 369, Fluorouracil (5-Fu) intraperitoneal injection 70 mg/kg once a day, for 5 days, compound intraperitoneal injection 100 mg/kg once a day, for 5 days, 2 h before chemotherapeutic agent, cycle 9 days): 50% | Relative remission rate (%) ([2]; Example 370, Fluorouracil (5-Fu) intraperitoneal injection 70 mg/kg once a day, for 5 days, compound intraperitoneal injection 100 mg/kg once a day, for 5 days, 4 h before chemotherapeutic agent, cycle 9 days): 30% | Relative remission rate (%) ([2]; Example 371, Fluorouracil (5-Fu) intraperitoneal injection 70 mg/kg once a day, for 5 days, compound intraperitoneal injection 100 mg/kg once a day, for 5 days, 6 h before chemotherapeutic agent, cycle 9 days): 20% | Relative remission rate (%) ([2]; Example 372, Fluorouracil (5-Fu) intraperitoneal injection 70 mg/kg once a day, for 5 days, compound intraperitoneal injection 100 mg/kg once a day, for 5 days, 8 h before chemotherapeutic agent, cycle 9 days): 10% | Relative remission rate (%) ([2]; Example 376, Fluorouracil (5-Fu) intraperitoneal injection 70 mg/kg once a day, for 7 days, compound intraperitoneal injection 125 mg/kg once a day, for 7 days, 2 h before chemotherapeutic agent, cycle 10 days): 10% | Relative remission rate (%) ([2]; Example 383, Fluorouracil (5-Fu) intravenous injection 70 mg/kg once a day for 3 days, compound oral administration 100 mg/kg once a day, for 3 days, 6 h before chemotherapeutic agent, cycle 8 days): 50% | Relative remission rate (%) ([2]; Example 384, Fluorouracil (5-Fu) oral administration 50 mg/kg once a day, for 14 days, compound intraperitoneal injection 100 mg/kg once a day, for 14 days, 8 h before chemotherapeutic agent, cycle 14 days): Ineffective | relieving effect on diarrhea ([2]; continuous administration of fluorouracil for 14 days): ineffective | relieving effects on diarrhea ([2]; continuous administration of the chemotherapeutic agent for 7 days or less): have relieving effects | relieving effects on diarrhea ([2]; continuous administration of the chemotherapeutic agent for less than 7 days): significant
